# Assay results taken from patent publication US7863449B2, “Modulators of muscarinic receptors” (Vertex Pharmaceuticals Incorporated, priority 2004, dated 2011).
# Columns and labels:
# [1] = target: T1, M4 muscarinic receptor (Homo sapiens, UniProt P08173); assay: Functional mobilization of intracellular calcium (FLIPR), M4-CHO cells; assay type: cell-based; details: for Emax: 100% efficacy is the maximum response obtained using Carbachol as a control; for M4 Activity: M4-CHO cells, FLIPR calcium mobilization
# T1 construct: expressed in transfected cells; host or cells: CHO (M4-CHO)
# T1 sequence (P08173 1-479): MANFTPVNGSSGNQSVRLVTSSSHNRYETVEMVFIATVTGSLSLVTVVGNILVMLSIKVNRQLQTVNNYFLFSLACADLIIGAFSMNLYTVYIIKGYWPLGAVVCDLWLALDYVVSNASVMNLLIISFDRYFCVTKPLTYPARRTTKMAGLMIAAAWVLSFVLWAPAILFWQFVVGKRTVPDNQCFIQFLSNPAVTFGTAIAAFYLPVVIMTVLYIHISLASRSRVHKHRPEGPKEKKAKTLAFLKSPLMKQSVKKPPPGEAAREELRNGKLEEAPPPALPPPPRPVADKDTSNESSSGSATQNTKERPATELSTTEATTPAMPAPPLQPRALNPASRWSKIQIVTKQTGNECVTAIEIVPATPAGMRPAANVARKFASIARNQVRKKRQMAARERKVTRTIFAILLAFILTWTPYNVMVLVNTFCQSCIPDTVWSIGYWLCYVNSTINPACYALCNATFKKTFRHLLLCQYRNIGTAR
# Method in brief: (§1)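 CHO cells expressing M1 or M4, loaded with Fluo-3 AM or Calcium 3 dye with 1 mM probenecid, 0.5% DMSO final. Agonist mode: compound added directly; antagonist mode: 15 min pre-incubation (or co-application) before carbachol at EC80. Fluorescence recorded 60 s on FLIPR.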
# [2] = target: T2, M1 muscarinic receptor (Homo sapiens, UniProt P11229); assay: Functional mobilization of intracellular calcium (FLIPR), M1-CHO cells; assay type: cell-based; details: for Emax: 100% efficacy is the maximum response obtained using Carbachol as a control; for M1 Activity: M1-CHO cells, FLIPR calcium mobilization
# T2 construct: expressed in transfected cells; host or cells: CHO (M1-CHO)
# T2 sequence (P11229 1-460): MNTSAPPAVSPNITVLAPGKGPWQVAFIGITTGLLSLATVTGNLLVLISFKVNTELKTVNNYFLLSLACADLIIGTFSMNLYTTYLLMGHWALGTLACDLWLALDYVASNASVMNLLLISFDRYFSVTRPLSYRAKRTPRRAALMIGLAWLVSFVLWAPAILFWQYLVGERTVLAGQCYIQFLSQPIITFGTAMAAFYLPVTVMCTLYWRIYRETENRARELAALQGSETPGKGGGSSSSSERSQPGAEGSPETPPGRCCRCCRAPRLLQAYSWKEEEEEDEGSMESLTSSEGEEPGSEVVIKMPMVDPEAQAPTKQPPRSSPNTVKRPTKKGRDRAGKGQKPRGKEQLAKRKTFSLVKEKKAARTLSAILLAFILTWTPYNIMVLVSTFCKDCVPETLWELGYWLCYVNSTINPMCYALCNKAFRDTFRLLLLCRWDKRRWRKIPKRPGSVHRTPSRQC
# Method in brief: as §1
SMILES,Emax [1],M4 Activity [1],Emax [2],M1 Activity [2]
CC(=O)N1Cc2ccccc2C2(CCN(CC3CC4CCC3CC4)CC2)C1 (centres unmarked) [compound 94],25 to 100%,+++ (activity was measured to be less than 1.0 μM),25 to 100%,++ (activity was measured to be from 1.0 μM to 5.0 μM)
CCCC(=O)N1Cc2ccccc2C2(CCN(C3CCN(C(=O)OCC)CC3)CC2)C1 [compound 185],25 to 100%,+++ (activity was measured to be less than 1.0 μM),25 to 100%,+++ (activity was measured to be less than 1.0 μM)
CC(=O)N1Cc2ccccc2C2(CCN(CC3CCCOC3)CC2)C1 (centres unmarked) [compound 266],< 25%,+ (activity was measured to be greater than 5.0 μM),< 25%,+ (activity was measured to be greater than 5.0 μM)
CCOC(=O)N1C2CCC1CC(N1CCC3(CC1)CN(C(=O)CC(F)(F)F)Cc1ccccc13)C2 (centres unmarked) [compound 126],25 to 100%,+++ (activity was measured to be less than 1.0 μM),25 to 100%,+++ (activity was measured to be less than 1.0 μM)
CCOC(=O)N1C2CCC1CC(N1CCC3(CC1)CN(S(=O)(=O)c1sc(NC(C)=O)nc1C)Cc1ccccc13)C2 (centres unmarked) [compound 200],25 to 100%,+++ (activity was measured to be less than 1.0 μM),25 to 100%,+++ (activity was measured to be less than 1.0 μM)
